Tests used:
CMRF44Ab [1] = assay: ELISA binding of peptide phage clones to CMRF44Ab; conditions: 12-mer phage libraries, confirmed by FACS blocking of CMRF44Ab binding to cell surface
Procedure: (§1) Peptide mimics were isolated from a phage display library using a library purchased from New England Biolabs called the PhD-12 Phage Display Peptide Library Kit (Cat No. #E8110S). The PhD-12 Phage Display Peptide Library Kit is based on a combinatorial library of random peptide 12-mers fused to a minor coat protein (pIII) of M13 phage. […] The library consists of ˜2.7×10^9 electroporated sequences, amplified once to yield ˜55 copies of each sequence in 10 μl of the supplied phage. The library is usually panned 3-4 times on the subject of study (usually antibody, but can use receptors, ligands etc.) with increasing stringency of washing at each step followed by analysis of individual clones for a consensus sequence binding to the test subject.
(§2) The consensus sequence of any peptides isolated from the library were be determined according to methods known to a person skilled in the art. ELISAs were then used to determine the binding of individual peptide phage clones or synthetic peptides (with or without repeats of the consensus sequence) to the original target (FIG. 1). Competitive binding assays were also used and analysed by FACS to determine true binding of the peptide sequences to the binding site of the target compared with the “natural” ligand or epitope (FIG. 2). Sequence analysis of the consensus sequence can determine what type of ligand is binding to the target or could give a true epitope, which may be used for database searches to find possible full-length sequences.
A consensus peptide sequence was identified for peptides which bind to CMRF44Ab from the 12-mer libraries using ELISA. Subsequent FACS analysis of phage peptide blocking of binding of CMRF44Ab to the cell surface also confirmed the peptide sequence. The peptide sequence appeared to be constrained to the N-terminus and the best sequence was AQKYQ (SEQ ID NO: 2) with apparent strong conservation at 1st, 3rd and 5th residues. A family of sequences were also identified and included ALKYQ (SEQ ID NO: 4), ALKEQ (SEQ ID NO: 5) and APKQQ (SEQ ID NO: 3). Further repeat panning of PhD-7 library was carried out to confirm the peptide sequence and identify other possible CMRF44 peptide antigen mimic sequences. […] Also, 3 rounds of repeat panning was carried out on combined 7-mer and 12-mer libraries (pooled together) with acid elution. Several clones sequences as well as pool of 3 round eluate. Results for CMRF-44 show an enrichment of the clone: ALKYQTGMPQSM (SEQ ID NO: 6) in both individual clones and the main strongest sequence in the pooled 3rd round eluate (FIG. 4).

CMRF44Ab [2] = assay: Repeat panning of combined 7-mer and 12-mer phage peptide libraries on CMRF44Ab, sequencing of 3rd round clones and pooled eluate; assay type: binding; conditions: 3 rounds, combined 7-mer and 12-mer libraries, acid elution; individual clones and pooled 3rd round eluate (FIG. 4)
Excerpt: FIG. 4 is a graphical representation of sequence results of 3rd round combined 7 and 12-mer phage peptide library panning (CMRF44Ab).
as §1
A consensus peptide sequence was identified for peptides which bind to CMRF44Ab from the 12-mer libraries using ELISA. Subsequent FACS analysis of phage peptide blocking of binding of CMRF44Ab to the cell surface also confirmed the peptide sequence. The peptide sequence appeared to be constrained to the N-terminus and the best sequence was AQKYQ (SEQ ID NO: 2) with apparent strong conservation at 1st, 3rd and 5th residues. […]

CMRF44Ab [3] = assay: FACS competitive binding: peptide blocking of CMRF44Ab binding to natural antigen on KM-H2 cells; assay type: cell-based; conditions: 5-mer peptide alone, KM-H2 cells (FIG. 22)
Excerpt: (§3) FIG. 22 is a graphical representation of FACS data showing binding of CMRF44Ab and scFv binding to KM-H2 cells and blocking of binding to natural antigen by competition with peptide mimic.
as §2

CMRF44 scFv = assay: FACS competitive binding: peptide blocking of CMRF44 scFv binding to natural antigen on KM-H2 cells; assay type: cell-based; conditions: 5-mer peptide alone, KM-H2 cells (FIG. 22)
Excerpt: as §3, §2

Substance | consensus peptide sequence binding to CMRF44Ab (CMRF44Ab [1]) | enrichment of clone in panning (CMRF44Ab [2]) | blocking of CMRF44Ab (CMRF44Ab [3]) | blocking of the engineered CMRF44 scFv (CMRF44 scFv)
ALKEQ | identified | – | – | –
ALKYQ | identified | – | – | –
ALKYQTGMPQSM [12-mer phage display peptide clone] | – | enrichment | – | –
APKQQ | identified | – | – | –
AQKYQ | best sequence | – | blocking | blocking

Reference: patent US8895698B2, “Binding partners of antibodies specific for dendritic cell antigens” (The Corporation of the Trustees of the Order of the Sisters …, priority 2004, dated 2014)
